Patent publication US9399070B2, “Compositions comprising a polymeric reagent and a pharmacologically active agent” (Nektar Therapeutics, priority 2003, dated 2016)

What was measured:
NB2-11 cells = experiment: NB2-11 rat lymphoma cell proliferation assay; settings: in vitro; based on determined protein content; unmodified hGH = 100% bioactivity; preliminary
Method: The biological activity of hGH and the conjugates described in Table 1 was assessed in vitro using an NB2-11 rat lymphoma cell proliferation assay. Briefly, NB2-11 cells derived from a rat lymphoma were incubated with hGH, which leads to binding of the hGH molecule to its receptor on the cell surface. Receptor binding induces the signal transduction cascade, which results in proliferation of the cells. Assay results were based on determined protein content, and a 100% bioactivity of unmodified hGH.

hypophysectomized rat = experiment: in vivo bioassay, weight gain in hypophysectomized rat (USP monograph for Somatotropin); settings: for increase of weight (day 8): single high dose of 110 μg on day 1, day 8
Method: Conjugates 1M and 1D were further evaluated in a preliminary in vivo bioassay (hypophysectomized rat, USP monograph for Somatotropin®). Six groups of each of five animals received either hGH, 1M, 1D, or placebo in different dosing regimes. Weight gain as a pharmacodynamic output was measured on day 1, 3, 6, and 8.
The results of the experiment are summarized in FIG. 4 (weight gain following day 8) and FIG. 5 (weight gain over time course of study). […] Daily dosing of 5 μg of the hGH standard induced an overall weight gain of 4% on day 8, whereas the single high dose of 110 μg of 1M and ID produced an increase of weight of 7% and 9% respectively (FIG. 4).

Substance	Activity, % (NB2-11 cells) [%]	increase of weight (day 8) (hypophysectomized rat) [%]	also measured
di(mPEG-2-ButyrALD-40k) hGH [Sample 4D]	0.2		
di(mPEG-2-NHS-40k) hGH [Sample 1D]	0.4	9	animal death in study group (hypophysectomized rat; 1D bolus group, single dose 110 μg, five animals per group): death of one animal
hGH: Native, recombinant human growth hormone, unmodified			overall weight gain on day 8 (hypophysectomized rat; daily dosing of 5 μg (cumulative 35 μg), day 8): 4%; weight gain during the eight days (hypophysectomized rat; single high dose (110 μg, day 1)): no or moderate weight gain
mono(mPEG-2-NHS-40k) hGH [Sample 1M]		7	
mono(mPEG-2-ButyrALD-40k) hGH [Sample 4M]	2.5		
